Data set [1] is described as follows: PK study after single oral dosing. It counts as in vivo, SD rats. The following applies: rats, single oral dosing of 25 mg kg^−1, n = 3.
Data set [2] has as its system HCV. Description: Anti-HCV effect in vitro, intracellular HCV RNA by real-time RT-PCR in infected Huh7.5 cells. The following applies: for EC50: read-out: EC50 (concentration required to inhibit HCV growth by 50%); for SI (ratio of CC50 to EC50): Huh7.5 cells. It counts as cell-based, hepatitis C virus. The procedure: (§1) All the target compounds were evaluated for their anti-HCV activities (EC50) and cytotoxicities (CC50) in human Huh7.5 cells using specific real-time RT-PCR assay, as described earlier. As an important indicator, the selectivity index (SI) was calculated as a ratio of CC50 to EC50. Anti-HCV ability of a given compound was estimated by combining its EC50 with SI values.
(§2) Human liver cell line Huh7.5 cells (kindly provided by Vertex Pharmaceuticals, Inc., Boston, MA) were cultured in Dulbecco’s modified eagle medium (DMEM) supplemented with 10% inactivated fetal bovine serum and 1% penicillin–streptomycin (invitrogen). Cells were digested with 0.05% trypsin-ethylene diamine tetraacetic acid (EDTA) and split twice a week.
Huh7.5 cells were seeded into 96-well or 6-well plates (Costar) at a density of 3 × 10^4 cells cm^−2. After 24 h incubation, the cells were infected with HCV viral stock (45 IU cell^−1) and simultaneously treated with the test compounds at various concentrations or solvent as control. The culture medium was removed after 72 h inoculation, the intracellular total RNA (in 96-well plates) was extracted with RNeasy Mini Kit (Qiagen), and total intracellular proteins (in 6-well plates) were extracted with Cyto-Buster Protein Extraction Reagent added with 1 mM protease inhibitor cocktail. The intracellular HCV RNA was quantified with a real time one-step reverse-transcription polymerase chain reaction (RT-PCR).

The test system of the next data set is Kunming mice. Description: Acute toxicity test, single oral dosing, 7 days monitoring. It counts as in vivo. How it is done:
Each compound was given orally in a single-dosing experiment at 250, 500, 750 or 1000 mg kg^−1, respectively. The mice were closely monitored for 7 days.
Female Kunming mice with weight of 20.0 ± 1.0 g were fed with regular rodent chow and housed in an air conditioned room. The mice were randomly divided into different groups with six mice each. Each compound was given orally in a single-dosing experiment at 0, 250, 500, 750 or 1000 mg kg^−1 (ddH2O as control), respectively. The mice were closely monitored for 7 days. Body weight as well as survival was monitored.

Another data set relates to Huh7.5 cells. In words: Cytotoxicity assay (MTT) in Huh7.5 cells. The following applies: Huh7.5 cells, 72 h, MTT; read-out: CC50 (cytotoxic concentration required to inhibit Huh7.5 cell growth by 50%). It counts as cell-based, human. The procedure:
as §1, §2
(§3) Huh7.5 cells were seeded into 96-well plates (Costar) at a density of 3 × 10^4 cells cm^−2. After 24 h incubation, fresh culture medium containing test compounds at various concentrations were added. 72 h later, cytotoxicity was evaluated with 3-(4,5-dimethylthiazol-2-yl)-2,5-diphenyltetrazolium bromide (MTT).

The test system of data set [3] is HCV. More on the design: method as in PMID 23516533, PMID 20593456. The following applies: earlier studies; cited from earlier work.
The nature of data set [4]: Cytotoxicity assay (MTT) in Huh7.5 cells. The following applies: human; Huh7.5 cells, 72 h, MTT; read-out: CC50 (cytotoxic concentration required to inhibit Huh7.5 cell growth by 50%). It counts as cell-based, human. The procedure:
as §1, §2, §3

Setting [5] is: HCV-infected Huh7.5 cells, 72 h, real-time RT-PCR.

Molecules are shown by their SMILES. Where a name gives a salt, the structure may show the parent alone. Read-outs that look alike come from different tables or passages of the source. Bounds are passed on as bounds.

Usually melting point stands for the temperature, or range, at which the solid turns liquid. As a reminder, the Cmax is the maximum level reached in the sampled fluid or tissue. For orientation: MRT means a mean duration of stay, worked out from the concentration-time curve. As usually defined, the Tmax is the time at which the peak concentration occurs. Usually LD50 stands for the dose at which mortality reaches 50%. Lower therefore signals a more toxic substance.

With `O=[N+]([O-])c1cccc(CN2C[C@@H]3CCCN4CCC[C@@H]([C@H]34)[C@H]2/C=C\CCO)c1` (as salt: hydrochloride) [compound 20, (Z)-12N-(3-nitrobenzyl)-Δ^βγ-matrinic crotonol dihydrochloride], the melting point lay in the range of 143 to 145 °C.

As to `COc1ccc(CN2CC3CCCN4CCCC(C2CCCCO)C34)cc1.Cl.Cl` (stereo not drawn) [7a, 12N-(4-Methoxybenzyl)matrinol dihydrochloride], in data set [1], the “AUC 0–t” value stood at 1.55 µM·h, the “AUC 0–∞” value was found to be 1.58 µM·h, the highest level (Cmax) was 620 nM and the mean residence time (MRT) is listed as 3.55 h. Further, in data set [1], the Tmax came out at 0.42 h and the t1/2 was 4.69 h. Also, the EC50 in the data set with HCV [2] (setting [5]) amounted to 2.81 ± 0.82 µM. The LD50 with Kunming mice worked out at 708 mg/kg. The CC50 in the data set with Huh7.5 cells worked out at 383 ± 30.2 µM.

With `Cc1ccc(CN2C[C@@H]3CCCN4CCC[C@@H]([C@H]34)[C@H]2CCCCO)cc1.Cl.Cl` [7b, 12N-(4-Methylbenzyl)matrinol dihydrochloride], in data set [1], the “AUC 0–t” value turned out to be 2.32 µM·h, the “AUC 0–∞” value was 2.36 µM·h, the highest concentration (Cmax) was determined as 790 nM and the MRT is reported as 4.47 h. In addition, in data set [1], the Tmax stood at 1.00 h and the t1/2 was found to be 3.39 h. Besides, the EC50 in the data set with HCV [2] (setting [5]) is < 2.06 µM. The compound also returned an LD50 in the data set on Kunming mice of 392 mg/kg. Also, the CC50 in the data set with Huh7.5 cells is 252 ± 3.04 µM.

As for `COc1ccc(CN2C[C@@H]3CCCN4CCC[C@@H]([C@H]34)[C@H]2CCCC(=O)O)cc1` [compound 1, 12N-4-methoxylbenzyl matrinic acid], the EC50 in the data set with HCV [2] (Hepatitis C virus, HCV-infected Huh7.5 cells, 72 h, real-time RT-PCR) was 43.8 ± 3.81 µM. Also, the “SI (ratio of CC50 to EC50)” value with HCV [2] is reported as > 22.8. The “SI (anti-HCV)” value in the data set on HCV [3] was “over 22”. In data set [4], the CC50 at 72 h is > 1000 µM.

With `CCCC[C@@H]1[C@H]2CCCN3CCC[C@@H](CN1Cc1ccc(OC)cc1)[C@@H]23` [compound 9, 12N-4-methoxybenzyl matrinic butane], the melting point is 73 to 74 °C. Moreover, the EC50 in the data set with HCV [2] (Hepatitis C virus, Huh7.5, 72 h) was found to be 1.16 ± 0.25 µM. Further, in the data set with HCV [2], the “SI (ratio of CC50 to EC50)” value amounted to 36.1. Further, in data set [4], the CC50 at 72 h stood at 41.9 ± 1.1 µM.
